Source: patent US10004701B2, “Methods and compositions for treating infection” (UNIVERSITY OF ROCHESTER, priority 2012, dated 2018)
Counter-ions that a name gives are not always drawn. Like-named read-outs stand apart in the source and are kept apart here.

Assays:
Experiment in all cases: AK assay 384-well format, Prestwick library screening
E. cloacae = assay type: cell-based, Enterobacter cloacae; details: Enterobacter cloacae, 3 h, 50 μM final drug concentration
E. faecium = assay type: cell-based, Enterococcus faecium; details: Enterococcus faecium, 3 h, 50 μM final drug concentration
K. pneumoniae = assay type: cell-based, Klebsiella pneumoniae; details: Klebsiella pneumoniae, 3 h, 50 μM final drug concentration
P. aeruginosa = assay type: cell-based, Pseudomonas aeruginosa; details: Pseudomonas aeruginosa, 3 h, 50 μM final drug concentration
[1] = test system: S. aureus strain USA300-0114; assay type: cell-based, Staphylococcus aureus; details: Staphylococcus aureus, USA300, 3 h, 50 μM final drug concentration
[2] = test system: A. baumannii strain 98-37-09; assay type: cell-based, Acinetobacter baumannii; details: Acinetobacter baumannii, 983709, 3 h, 50 μM final drug concentration
E. coli = assay type: cell-based, Escherichia coli; details: Escherichia coli, 3 h, 50 μM final drug concentration
[3] = cutoff for positive-scoring molecules 3-fold increase, read-out: AK-based Prestwick Library Screening Results, E. cloacae (fold increase in extracellular AK activity)
[4] = cutoff for positive-scoring molecules 3-fold increase, read-out: AK-based Prestwick Library Screening Results, E. faecium (fold increase in extracellular AK activity)
[5] = cutoff for positive-scoring molecules 3-fold increase, read-out: AK-based Prestwick Library Screening Results, K. pneumoniae (fold increase in extracellular AK activity)
[6] = cutoff for positive-scoring molecules 3-fold increase, read-out: AK-based Prestwick Library Screening Results, P. aeruginosa (fold increase in extracellular AK activity)
[7] = cutoff for positive-scoring molecules 3-fold increase, read-out: AK-based Prestwick Library Screening Results, S. aureus (fold increase in extracellular AK activity)
[8] = cutoff for positive-scoring molecules 3-fold increase, read-out: AK-based Prestwick Library Screening Results, A. baumannii (fold increase in extracellular AK activity)
[9] = cutoff for positive-scoring molecules 3-fold increase, read-out: AK-based Prestwick Library Screening Results, E. coli (fold increase in extracellular AK activity)
[10] = planktonic E. cloacae, 384-well, […], read-out: AK-based Prestwick Library Screening Results: E. cloacae (increase in extracellular AK activity)
[11] = planktonic E. faecium, 384-well, […], read-out: AK-based Prestwick Library Screening Results: E. faecium (increase in extracellular AK activity)
[12] = planktonic K. pneumoniae, 384-well, […], read-out: AK-based Prestwick Library Screening Results: K. pneumoniae (increase in extracellular AK activity)
[13] = planktonic P. aeruginosa, 384-well, […], read-out: AK-based Prestwick Library Screening Results: P. aeruginosa (increase in extracellular AK activity)
[14] = planktonic S. aureus, 384-well, […], read-out: AK-based Prestwick Library Screening Results: S. aureus (increase in extracellular AK activity)
[15] = planktonic A. baumannii, 384-well, […], read-out: AK-based Prestwick Library Screening Results: A. baumannii (increase in extracellular AK activity)
[16] = planktonic E. coli, 384-well, […], read-out: AK-based Prestwick Library Screening Results: E. coli (increase in extracellular AK activity)

## Cn1cnc2c1c(=O)[nH]c(=O)n2C [Theobromine]
E. cloacae; [3]
  fold induction at 50 µM: 1.4
E. faecium; [4]
  fold induction at 50 µM: 1.1
K. pneumoniae; [5]
  fold induction at 50 µM: 1.2
P. aeruginosa; [6]
  fold induction at 50 µM: 1.2
[1]; [7]
  fold induction at 50 µM: 1.3
[2]; [8]
  fold induction at 50 µM: 1.1
E. coli; [9]
  fold induction at 50 µM: 1.2

## Cc1cc(NC(=O)C2=C(O)c3ccccc3S(=O)(=O)N2C)no1 [Isoxicam]
E. cloacae; 384-well format, cutoff for positive-scoring molecules 3-fold increase, read-out: AK-based Prestwick Library Screening Results, E. cloacae (increase in extracellular AK activity)
  fold induction at 50 µM: 1.4
E. faecium; 384-well format, cutoff for positive-scoring molecules 3-fold increase, read-out: AK-based Prestwick Library Screening Results, E. faecium (increase in extracellular AK activity)
  fold induction at 50 µM: 1
K. pneumoniae; 384-well format, cutoff for positive-scoring molecules 3-fold increase, read-out: AK-based Prestwick Library Screening Results, K. pneumoniae (increase in extracellular AK activity)
  fold induction at 50 µM: 1
P. aeruginosa; 384-well format, cutoff for positive-scoring molecules 3-fold increase, read-out: AK-based Prestwick Library Screening Results, P. aeruginosa (increase in extracellular AK activity)
  fold induction at 50 µM: 1
[1]; 384-well format, cutoff for positive-scoring molecules 3-fold increase, read-out: AK-based Prestwick Library Screening Results, S. aureus (increase in extracellular AK activity)
  fold induction at 50 µM: 1
[2]; 384-well format, cutoff for positive-scoring molecules 3-fold increase, read-out: AK-based Prestwick Library Screening Results, A. baumannii (increase in extracellular AK activity)
  fold induction at 50 µM: 1
E. coli; 384-well format, cutoff for positive-scoring molecules 3-fold increase, read-out: AK-based Prestwick Library Screening Results, E. coli (increase in extracellular AK activity)
  fold induction at 50 µM: 1.2

## N=C(N)NCCN1CCCCCCC1 [Guanethidine sulfate]
E. cloacae; [10]
  fold induction at 50 µM: 1.4
E. faecium; [11]
  fold induction at 50 µM: 1.1
K. pneumoniae; [12]
  fold induction at 50 µM: 1.1
P. aeruginosa; [13]
  fold induction at 50 µM: 1.4
[1]; [14]
  fold induction at 50 µM: 1.1
[2]; [15]
  fold induction at 50 µM: 1.3
E. coli; [16]
  fold induction at 50 µM: 1.4

## CN(C)CCC=C1c2ccccc2C=Cc2ccccc21 [Cyclobenzaprine hydrochloride]
E. cloacae; planktonic E. cloacae, cutoff for positive-scoring molecules 3-fold increase, read-out: AK-based Prestwick Library Screening Results, E. cloacae (increase in extracellular AK activity)
  fold induction at 50 µM: 1.2
E. faecium; planktonic E. faecium, cutoff for positive-scoring molecules 3-fold increase, read-out: AK-based Prestwick Library Screening Results, E. faecium (increase in extracellular AK activity)
  fold induction at 50 µM: 1
K. pneumoniae; planktonic K. pneumoniae, cutoff for positive-scoring molecules 3-fold increase, read-out: AK-based Prestwick Library Screening Results, K. pneumoniae (increase in extracellular AK activity)
  fold induction at 50 µM: 0.9
P. aeruginosa; planktonic P. aeruginosa, cutoff for positive-scoring molecules 3-fold increase, read-out: AK-based Prestwick Library Screening Results, P. aeruginosa (increase in extracellular AK activity)
  fold induction at 50 µM: 1.1
[1]; planktonic S. aureus, cutoff for positive-scoring molecules 3-fold increase, read-out: AK-based Prestwick Library Screening Results, S. aureus (increase in extracellular AK activity)
  fold induction at 50 µM: 1
[2]; planktonic A. baumannii, cutoff for positive-scoring molecules 3-fold increase, read-out: AK-based Prestwick Library Screening Results, A. baumannii (increase in extracellular AK activity)
  fold induction at 50 µM: 1.2
E. coli; planktonic E. coli, cutoff for positive-scoring molecules 3-fold increase, read-out: AK-based Prestwick Library Screening Results, E. coli (increase in extracellular AK activity)
  fold induction at 50 µM: 1.3

## CC1(C)S[C@@H]2[C@H](NC(=O)[C@H](NC(=O)N3CCNC3=O)c3ccccc3)C(=O)N2[C@H]1C(=O)O [Azlocillin sodium salt]
E. cloacae; planktonic, cutoff for positive-scoring molecules 3-fold increase, read-out: AK-based Prestwick Library Screening Results, E. cloacae (fold increase in extracellular AK activity)
  fold induction at 50 µM: 1
E. faecium; planktonic, cutoff for positive-scoring molecules 3-fold increase, read-out: AK-based Prestwick Library Screening Results, E. faecium (fold increase in extracellular AK activity)
  fold induction at 50 µM: 0.9
K. pneumoniae; planktonic, cutoff for positive-scoring molecules 3-fold increase, read-out: AK-based Prestwick Library Screening Results, K. pneumoniae (fold increase in extracellular AK activity)
  fold induction at 50 µM: 0.7
P. aeruginosa; planktonic, cutoff for positive-scoring molecules 3-fold increase, read-out: AK-based Prestwick Library Screening Results, P. aeruginosa (fold increase in extracellular AK activity)
  fold induction at 50 µM: 9.7
[1]; planktonic, cutoff for positive-scoring molecules 3-fold increase, read-out: AK-based Prestwick Library Screening Results, S. aureus (fold increase in extracellular AK activity)
  fold induction at 50 µM: 0.4
[2]; planktonic, cutoff for positive-scoring molecules 3-fold increase, read-out: AK-based Prestwick Library Screening Results, A. baumannii (fold increase in extracellular AK activity)
  fold induction at 50 µM: 2.1
E. coli; planktonic, cutoff for positive-scoring molecules 3-fold increase, read-out: AK-based Prestwick Library Screening Results, E. coli (fold increase in extracellular AK activity)
  fold induction at 50 µM: 12.3

## CC(C)[N+](C)(CCC(C(N)=O)(c1ccccc1)c1ccccc1)C(C)C [Isopropamide iodide]
E. cloacae; [3]
  fold induction at 50 µM: 1.5
E. faecium; [4]
  fold induction at 50 µM: 1.1
K. pneumoniae; [5]
  fold induction at 50 µM: 1.1
P. aeruginosa; [6]
  fold induction at 50 µM: 1.2
[1]; [7]
  fold induction at 50 µM: 1.2
[2]; [8]
  fold induction at 50 µM: 1
E. coli; [9]
  fold induction at 50 µM: 1.3

## CCCCOc1ccc(OCCCN2CCOCC2)cc1 [Pramoxine hydrochloride]
E. cloacae; [3]
  fold induction at 50 µM: 1.5
E. faecium; [4]
  fold induction at 50 µM: 1
K. pneumoniae; [5]
  fold induction at 50 µM: 1.1
P. aeruginosa; [6]
  fold induction at 50 µM: 1.2
[1]; [7]
  fold induction at 50 µM: 1.3
[2]; [8]
  fold induction at 50 µM: 1.1
E. coli; [9]
  fold induction at 50 µM: 1.1

## CN(C)c1nc(N(C)C)nc(N(C)C)n1 [Altretamine]
E. cloacae; [3]
  fold induction at 50 µM: 1.4
E. faecium; [4]
  fold induction at 50 µM: 1
K. pneumoniae; [5]
  fold induction at 50 µM: 1
P. aeruginosa; [6]
  fold induction at 50 µM: 1.2
[1]; [7]
  fold induction at 50 µM: 1.1
[2]; [8]
  fold induction at 50 µM: 1.3
E. coli; [9]
  fold induction at 50 µM: 1.3

## CN(C)c1ccc(O)c2c1C[C@H]1C[C@H]3[C@H](N(C)C)C(O)=C(C(N)=O)C(=O)[C@@]3(O)C(O)=C1C2=O [Minocycline hydrochloride]
E. cloacae; planktonic E. cloacae, 384-well, cutoff for positive-scoring molecules 3-fold increase, read-out: AK-based Prestwick Library Screening Results: E. cloacae (increase in extracellular AK activity)
  fold induction at 50 µM: 0.9
E. faecium; planktonic E. faecium, 384-well, cutoff for positive-scoring molecules 3-fold increase, read-out: AK-based Prestwick Library Screening Results: E. faecium (increase in extracellular AK activity)
  fold induction at 50 µM: 1.1
K. pneumoniae; planktonic K. pneumoniae, 384-well, cutoff for positive-scoring molecules 3-fold increase, read-out: AK-based Prestwick Library Screening Results: K. pneumoniae (increase in extracellular AK activity)
  fold induction at 50 µM: 0.6
P. aeruginosa; planktonic P. aeruginosa, 384-well, cutoff for positive-scoring molecules 3-fold increase, read-out: AK-based Prestwick Library Screening Results: P. aeruginosa (increase in extracellular AK activity)
  fold induction at 50 µM: 0.7
[1]; planktonic S. aureus, 384-well, cutoff for positive-scoring molecules 3-fold increase, read-out: AK-based Prestwick Library Screening Results: S. aureus (increase in extracellular AK activity)
  fold induction at 50 µM: 6.9
[2]; planktonic A. baumannii, 384-well, cutoff for positive-scoring molecules 3-fold increase, read-out: AK-based Prestwick Library Screening Results: A. baumannii (increase in extracellular AK activity)
  fold induction at 50 µM: 3.9
E. coli; planktonic E. coli, 384-well, cutoff for positive-scoring molecules 3-fold increase, read-out: AK-based Prestwick Library Screening Results: E. coli (increase in extracellular AK activity)
  fold induction at 50 µM: 2.3

## NS(=O)(=O)c1cc(C(=O)O)cc(N2CCCC2)c1Oc1ccccc1 [Piretanide]
E. cloacae; [3]
  fold induction at 50 µM: 0.4
E. faecium; [4]
  fold induction at 50 µM: 0.8
K. pneumoniae; [5]
  fold induction at 50 µM: 0.5
P. aeruginosa; [6]
  fold induction at 50 µM: 0.4
[1]; [7]
  fold induction at 50 µM: 0.4
[2]; [8]
  fold induction at 50 µM: 0.4
E. coli; [9]
  fold induction at 50 µM: 0.5

## CN(C)CCC(c1ccccc1)c1ccccn1 (centres unmarked) [Pheniramine maleate]
E. cloacae; [10]
  fold induction at 50 µM: 1.7
E. faecium; [11]
  fold induction at 50 µM: 1
K. pneumoniae; [12]
  fold induction at 50 µM: 1
P. aeruginosa; [13]
  fold induction at 50 µM: 1
[1]; [14]
  fold induction at 50 µM: 1
[2]; [15]
  fold induction at 50 µM: 1
E. coli; [16]
  fold induction at 50 µM: 1.4
